Measurements reported in patent US11415579B2, “Assay for measuring a rate of reaction between a target and a ligand candidate” (Imperial College Innovations Ltd., priority 2016, dated 2022).

Columns and labels:
Cdk2(T182C) (C177A) = molecular target: T1, Cdk2(T182C) (C177A) (Homo sapiens, UniProt P24941, C177A/T182C); assay: Kinetic thiol consumption assay with Cdk2 mutant T182C; format: binding; set-up: key to Rate enhancement, Cdk2 T182C: rate constant with Cdk2 ÷ rate constant with model thiol (fold); settings: additional mutation C177A; for Rate constant with Cdk2 T182C: Protein: Cdk2, cysteine position T182C, in h^-1
T1 construct: poly-histidine; made in house; host or cells: E. coli
Outline: (§1)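 5 μM thiol, degassed phosphate pH 8, 2% v/v immobilized TCEP beads; 1 h RT; fluorescence ex 380/em 470 nm; normalized vs DMSO/thiol-only; first-order exponential decay fit → rate constant; Cdk2 k / model-thiol k = rate enhancement per acrylamide.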

Cdk2[C177A, F80C, K278C] = molecular target: T2, Cdk2[C177A, F80C, K278C] (Homo sapiens, UniProt P24941, C177A/F80C/K278C); assay: Kinetic thiol consumption assay with mutant Cdk2 as model thiol; format: binding; set-up: unit not given here; settings: 500 μM ligand, 5 μM thiol, phosphate buffer pH 8
T2 construct: poly-histidine; made in house; host or cells: E. coli
Experimental: A library of 120 acrylamides was screened against a) human cyclin-dependent kinase 2 (Cdk2, which contains one surface exposed cysteine residue—C177), prepared by cloning cDNA into the pRSETA bacterial expression vector to generate a poly-histidine tagged Cdk2 fusion that was purified from E. coli using standard techniques, and b) a model thiol (specific details are given below). The structures of these 120 acrylamides are set out in Table 1, above.
To wells containing 150 μL thiol (Cdk2 or model thiol) (5 μM) in degassed phosphate buffer (pH 8) was added immobilized TCEP beads (2% v/v).
After incubation of the fluorescence plates for 1 hour at room temperature, fluorescence measurements (excitation/emission of 380/470 nm) were taken on a PerkinElmer EnVision multilabel plate reader and processed with EnVision Workstation version 1.12.
Fluorescence measurements were normalized against a DMSO/thiol only control and plotted against time.
Rate constants were calculated using GraphPad software Prism version 6 by fitting a first order exponential decay to the data. The rate constant for each acrylamide with Cdk2 was divided by the rate constant for that fragment with the model thiol to provide the rate enhancement for each ligand candidate.
The model thiol used in Example 2 is a mutant form of human Cdk2 (C177A, F80C, K278C) which contains two engineered surface exposed cysteine residues. Mutations were introduced by site-directed mutagenesis and the resulting cDNA was cloned into the pRSETA bacterial expression vector to generate a poly-histidine tagged Cdk2 fusion that was purified from E. coli using standard techniques.

[1] = Kinetic thiol consumption assay with model thiol glutathione; format: physicochemical; set-up: Rate constant with glutathione (k(GSH)): unit not given here; settings: for Rate constant with Glutathione: Protein: Glutathione, cysteine position NA, in h-1
Outline: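 GSH 5 μM, degassed phosphate buffer pH 8, TCEP beads 2% v/v; acrylamide added; RT, 1 h; fluorescence ex/em 380/470 nm; normalized to DMSO/thiol control; k from first-order exponential decay fit.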

[2] = molecular target: T3, human cyclin-dependent kinase 2 (Cdk2) (Homo sapiens, UniProt P24941); assay: Kinetic thiol consumption assay with wild type Cdk2 (C177); format: binding; set-up: key to Rate enhancement, Cdk2 WT: k(Cdk2) divided by k(model thiol); Rate constant with Cdk2 (k(Cdk2)): unit not given here; settings: for Rate constant with Cdk2 (k(Cdk2)): 500 μM ligand, 5 μM thiol, phosphate buffer pH 8; for Rate enhancement, Cdk2 WT: no additional mutations; for Rate constant with Cdk2 WT: Protein: Cdk2, cysteine position WT, in h^-1; for k(Cdk2)/k(Cdk2_mut) rate enhancement: model thiol Cdk2[C177A, F80C, K278C]
T3 construct: poly-histidine; made in house; host or cells: E. coli
Outline: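 Rate constants came from first-order exponential decay fits of normalized fluorescence against time, with thiol (5 μM) in degassed pH 8 phosphate buffer containing 2% v/v TCEP beads and reads after 1 h at room temperature.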

Cdk2(C177A, F80C) = molecular target: T4, Cdk2(C177A, F80C) (Homo sapiens, UniProt P24941, C177A/F80C); assay: Kinetic thiol consumption assay with Cdk2 mutant F80C, incl. kobs versus concentration (Kd, k2); format: binding; set-up: key to Rate enhancement, Cdk2 F80C: Cdk2 rate constant divided by model-thiol rate constant; settings: additional mutation C177A; for Rate constant with Cdk2 F80C: Protein: Cdk2, cysteine position F80C, in h^-1
T4 construct: poly-histidine; made in house; host or cells: E. coli
Outline: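 His-tagged Cdk2(C177A/F80C) from E. coli or model thiol, 5 μM in degassed phosphate buffer pH 8 with TCEP beads, reacted with acrylamide ligands; fluorescence (ex/em 380/470 nm) normalized to DMSO control and fitted to first-order decay for kobs. Kd and k2 obtained from hyperbolic fit of kobs versus ligand concentration.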

Cdk2(S276C) (C177A) = molecular target: T5, Cdk2(S276C) (C177A) (Homo sapiens, UniProt P24941, C177A/S276C); assay: Kinetic thiol consumption assay with Cdk2 mutant S276C; format: binding; set-up: key to Rate enhancement, Cdk2 S276C: rate constant with Cdk2 ÷ rate constant with model thiol (fold); settings: additional mutation C177A; for Rate constant with Cdk2 S276C: Protein: Cdk2, cysteine position S276C, in h^-1
T5 construct: poly-histidine; made in house; host or cells: E. coli
Outline: as §1

Cdk2(R122C) (C177A) = molecular target: T6, Cdk2(R122C) (C177A) (Homo sapiens, UniProt P24941, C177A/R122C); assay: Kinetic thiol consumption assay with Cdk2 mutant R122C; format: binding; set-up: key to Rate enhancement, Cdk2 R122C: rate constant with Cdk2 ÷ rate constant with model thiol (fold); settings: additional mutation C177A; for Rate constant with Cdk2 R122C: Protein: Cdk2, cysteine position R122C, in h-1
T6 construct: poly-histidine; made in house; host or cells: E. coli
Outline: as §1

Cdk2(N272C) (C177A) = molecular target: T7, Cdk2(N272C) (C177A) (Homo sapiens, UniProt P24941, C177A/N272C); assay: Kinetic thiol consumption assay with Cdk2 mutant N272C; format: binding; set-up: key to Rate enhancement, Cdk2 N272: rate constant with Cdk2 ÷ rate constant with model thiol (fold); settings: for Rate enhancement, Cdk2 N272: Cdk2 N272, additional mutation C177A; for Rate constant with Cdk2 N272C: Protein: Cdk2, cysteine position N272C, additional mutation C177A, in h^-1
T7 construct: poly-histidine; made in house; host or cells: E. coli
Outline: as §1

Cdk2(H71C) (C177A) = molecular target: T8, Cdk2(H71C) (C177A) (Homo sapiens, UniProt P24941, C177A/H71C); assay: Kinetic thiol consumption assay with Cdk2 mutant H71C; format: binding; set-up: key to Rate enhancement, Cdk2 H71C: rate constant with Cdk2 ÷ rate constant with model thiol (fold); settings: additional mutation C177A; for Rate constant with Cdk2 H71C: Protein: Cdk2, cysteine position H71C, in h^-1
T8 construct: poly-histidine; made in house; host or cells: E. coli
Outline: as §1

Cdk2(S181C) (C177A) = molecular target: T9, Cdk2(S181C) (C177A) (Homo sapiens, UniProt P24941, C177A/S181C); assay: Kinetic thiol consumption assay with Cdk2 mutant S181C; format: binding; set-up: key to Rate enhancement, Cdk2 S181C: rate constant with Cdk2 ÷ rate constant with model thiol (fold); settings: additional mutation C177A; for Rate constant with Cdk2 S181C: Protein: Cdk2, cysteine position S181C, in h^-1
T9 construct: poly-histidine; made in house; host or cells: E. coli
Outline: as §1

Row | SMILES | Rate enhancement, Cdk2 T182C (Cdk2(T182C) (C177A)) | Rate constant with Cdk2 T182C (Cdk2(T182C) (C177A)) | Rate constant with Cdk2[C177A, F80C, K278C] (k(Cdk2_mut)) (Cdk2[C177A, F80C, K278C]) | Rate constant with Glutathione [1] | Rate constant with Cdk2 (k(Cdk2)) [2] | Rate enhancement, Cdk2 WT [2] | Rate constant with Cdk2 WT [2] | k(Cdk2)/k(Cdk2_mut) rate enhancement [2] | Rate enhancement, Cdk2 F80C (Cdk2(C177A, F80C)) | Rate constant with Cdk2 F80C (Cdk2(C177A, F80C)) | Rate enhancement, Cdk2 S276C (Cdk2(S276C) (C177A)) | Rate constant with Cdk2 S276C (Cdk2(S276C) (C177A)) | Rate enhancement, Cdk2 R122C (Cdk2(R122C) (C177A)) | Rate constant with Cdk2 R122C (Cdk2(R122C) (C177A)) | Rate enhancement, Cdk2 N272 (Cdk2(N272C) (C177A)) | Rate constant with Cdk2 N272C (Cdk2(N272C) (C177A)) | Rate enhancement, Cdk2 H71C (Cdk2(H71C) (C177A)) | Rate constant with Cdk2 H71C (Cdk2(H71C) (C177A)) | Rate enhancement, Cdk2 S181C (Cdk2(S181C) (C177A)) | Rate constant with Cdk2 S181C (Cdk2(S181C) (C177A)) | further results
1 | C=CC(=O)NCCNC(=O)c1ccccc1 [CA216] | 59.66 | 0.2557 | 0.01899 | 0.004286 | 0.00676 | 3.777 | 0.01619 | 0.356 | 18.66 | 0.07999 | 1.648 | 0.007064 | 0.4256 | 0.001824 | 2.921 | 0.01252 | 1.033 | 0.004427 | 0.8854 | 0.003795 | Rate constant with glutathione (k(GSH)) ([1]; 500 μM ligand, 5 μM thiol, phosphate buffer pH 8): 0.00254; k(Cdk2)/k(GSH) rate enhancement ([2]; model thiol glutathione): 2.66
2 | C=CC(=O)NCc1ccccc1 [CA-009] | 21.57 | 0.1507 | 0.00402 | 0.006985 | 0.00446 | 2.404 | 0.01679 | 1.108 | 0.5029 | 0.003513 | 0.8186 | 0.005718 | 0.5794 | 0.004047 | 1.318 | 0.009206 | 0.2836 | 0.001981 | 0.4707 | 0.003288 | 
